This passage reports MIC results from patent publication US10711011B2, “Substituted oxazolidines as anti-bacterial agents” (BUGWORKS RESEARCH, INC., priority 2016, dated 2020).

Broadly, the MIC is the smallest concentration in the dilution series that meets the test's criterion for growth inhibition. High values mean a need for much substance, low ones inhibition by little substance.

Molecules are shown by their SMILES. ≈ marks a conversion by molar mass, not a printed value. Some results are limits rather than exact numbers.

What all share (test): Minimum Inhibitory Concentration (MIC) in LB media
In assay [1] the test system is S. aureus ATCC 29213. The format is cell-based, Staphylococcus aureus. To be noted: Staphylococcus aureus, ATCC29213, LB Media. The source says:
(§1) The compounds of Formula I are of interest due to their potent antibacterial effects. The ability of the invention compounds disclosed herein to achieve an antibacterial effect may be evaluated with regard to their ability to inhibit the growth of bacterial species like Escherichia coli ATCC 25922, Staphylococcus aureus ATCC 29213, Klebsiella pneumoniae ATCC 13883, Acinetobacter baumannii ATCC 19606, Pseudomonas aurigenosa ATCC 27853, Enterococcus faecalis ATCC 29212 and Enterococcus faecalis ATCC 29212 using an assay based on the following Minimum Inhibitory Concentration (MIC) protocol:
(§2) The test bacteria are grown in Luria Bertani Broth (HIMEDIA M1245), 25 grams of the powder is dissolved in 1000 ml distilled water and sterilized by autoclaving at 15 lbs pressure (121° C.) for 20 minutes. The medium sterility is checked by incubating at 37° C. for a period of 48 h.
(§3) Bacterial cultures that are stored as glycerol stocks at −80° C. are sub cultured on LB agar plates to obtain isolated colonies. A single colony of each strain is cultured in LB broth. The cultures are incubated at 37° C., 200 rpm till they reach an optical density (OD at 600 nm) of 0.8 to 1. […] Test compounds are dissolved in dimethyl sulfoxide (DMSO) to a stock concentration of 4 mg/ml. A twofold dilution series of this DMSO stock is prepared in a 96 well V bottom microtitre plate from rows A to H. A 3 μL volume of these dilutions are transferred to a 96-well flat bottom microtitre assay plate. Controls to monitor the effects of DMSO and media sterility are included. Each well is inoculated with 150 μL of the above diluted culture. The plates are incubated at 37° C. overnight in a humidified incubator. The following morning, the plates are read using a Spectrophotometer at 600 nm wavelength. […] The antibacterial activity (MIC) determined against representative Gram positive (S. aureus, E. faecalis) and Gram negative (E. coli, P. aurigenosa, K. pneumoniae and A. baumannii) pathogen were reported Table 1.

In assay [2] the test system is E. faecalis ATCC 29212. The format is cell-based, Enterococcus faecalis. To be noted: Enterococcus faecalis, ATCC29212.
Excerpt: as §1, §2, §3

Assay [3] concerns E. coli ATCC 25922. The format is cell-based, Escherichia coli. To be noted: Escherichia coli, ATCC25922, LB Media.
Excerpt: as §1, §2, §3

Assay [4] concerns P. aurigenosa ATCC 27853. The format is cell-based, Pseudomonas aurigenosa. To be noted: Pseudomonas, ATCC27853, LB Media.
Excerpt: as §1, §2, §3

Assay [5] deals with K. pneumoniae ATCC 13883. The format is cell-based, Klebsiella pneumoniae. To be noted: Klebsiella pneumoniae, ATCC13883, LB Media.
Excerpt: as §1, §2, §3

Assay [6] deals with A. baumannii ATCC 19606. The format is cell-based, Acinetobacter baumannii. To be noted: Acinetobacter baumannii, ATCC19606, LB Media.
Excerpt: as §1, §2, §3

Take `O=C(O)c1cn(C2CC2)c2cc(N3CCNCC3)c(F)cc2c1=O` [Ciprofloxacin, reference compound]: the MIC in assay [1] turned out to be 0.4 mg/L (≈ 1.21 µM); in assay [2], 0.4 mg/L (≈ 1.21 µM); in assay [3], 0.012 mg/L (≈ 0.0362 µM); in assay [4], 0.1 mg/L (≈ 0.302 µM); in assay [5], 0.05 mg/L (≈ 0.151 µM); in assay [6], 0.4 mg/L (≈ 1.21 µM).

Turning to `CN1C(=O)Cc2cccc(CNCCC3CN(c4ccc5c(n4)NC(=O)CO5)C(=O)O3)c21` (stereo not drawn) [Example 1, 6-(5-(2-(((1-Methyl-2-oxoindolin-7-yl)methyl)amino)ethyl)-2-oxooxazolidin-3-yl)-2H-pyrido[3,2-b][1,4]oxazin-3(4H)-one], the MIC in assay [1] was 5 mg/L (≈ 11.4 µM); in assay [2], 5 mg/L (≈ 11.4 µM); in assay [3], 2.5 mg/L (≈ 5.71 µM); in assay [4] it was 40 mg/L (≈ 91.4 µM); in assay [5], 10 mg/L (≈ 22.9 µM); in assay [6], 0.6 mg/L (≈ 1.37 µM).

As to `CN1C(=O)Cc2ccc(F)c(CNCCC3CN(c4ccc5c(c4)NC(=O)CO5)C(=O)O3)c21` (stereo not drawn) [Example 3, 6-(5-(2-(((6-fluoro-1-methyl-2-oxoindolin-7-yl)methyl)amino)ethyl)-2-oxooxazolidin-3-yl)-2H-benzo[b][1,4]oxazin-3(4H)-one], the MIC amounted to 0.6 mg/L (≈ 1.32 µM) in assay [1]; 1.25 mg/L (≈ 2.75 µM) in assay [2]; 1.25 mg/L (≈ 2.75 µM) in assay [3]; 20 mg/L (≈ 44 µM) in assay [4]; 5 mg/L (≈ 11 µM) in assay [5]; 0.6 mg/L (≈ 1.32 µM) in assay [6].

With `Cc1ncc(N2CC(CCNCc3c(F)ccc4c3N(C)C(=O)C4)OC2=O)cc1C#N` (stereo not drawn) [Example 5, 5-(5-(2-(((6-Fluoro-1-methyl-2-oxoindolin-7-yl)methyl)amino)ethyl)-2-oxooxazolidin-3-yl)-2-methylnicotinonitrile], the MIC in assay [1] is 80 mg/L (≈ 189 µM); in assay [2], 80 mg/L (≈ 189 µM); in assay [3], 80 mg/L (≈ 189 µM); in assay [4], above 80 mg/L; in assay [5], above 80 mg/L; in assay [6], 40 mg/L (≈ 94.5 µM).

For `CCN1C(=O)Cc2ccc(F)c(CNCCC3CN(c4ccc5c(n4)NC(=O)CO5)C(=O)O3)c21` (stereo not drawn) [Example 7, 6-(5-(2-(((1-Ethyl-6-fluoro-2-oxoindolin-7-yl)methyl)amino)ethyl)-2-oxooxazolidin-3-yl)-2H-pyrido[3,2-b][1,4]oxazin-3(4H)-one], the MIC worked out at 0.15 mg/L (≈ 0.32 µM) in assay [1]; 0.6 mg/L (≈ 1.28 µM) in assay [2]; 1.25 mg/L (≈ 2.66 µM) in assay [3]; 20 mg/L (≈ 42.6 µM) in assay [4]; 5 mg/L (≈ 10.7 µM) in assay [5]; 0.3 mg/L (≈ 0.639 µM) in assay [6].

With `Cn1c(=O)oc2ccc(F)c(CCNCCC3CN(c4ccc5c(n4)NC(=O)CO5)C(=O)O3)c21` (stereo not drawn) [Example 16, 6-(5-(2-((2-(5-Fluoro-3-methyl-2-oxo-2,3-dihydrobenzo[d]oxazol-4-yl)ethyl)amino)ethyl)-2-oxooxazolidin-3-yl)-2H-pyrido[3,2-b][1,4]oxazin-3(4H)-one], the minimum inhibitory concentration (MIC) in assay [1] was determined as 4 mg/L (≈ 8.48 µM); in assay [2] it was 4 mg/L (≈ 8.48 µM); in assay [3], 0.5 mg/L (≈ 1.06 µM); in assay [4] it was 4 mg/L (≈ 8.48 µM); in assay [5] it was 1 mg/L (≈ 2.12 µM); in assay [6] it was 0.5 mg/L (≈ 1.06 µM).

For `CN1C(=O)Cc2ncc(F)c(CNCCCC3CN(c4ccc5c(n4)NC(=O)CO5)C(=O)O3)c21` (stereo not drawn) [Example 17, 6-(5-(3-(((6-Fluoro-1-methyl-2-oxo-2,3-dihydro-1H-pyrrolo[3,2-b]pyridin-7-yl)methyl)amino)propyl)-2-oxooxazolidin-3-yl)-2H-pyrido[3,2-b][1,4]oxazin-3(4H)-one], the minimal inhibitory concentration (MIC) is 1 mg/L (≈ 2.13 µM) in assay [1]; 4 mg/L (≈ 8.5 µM) in assay [2]; 1 mg/L (≈ 2.13 µM) in assay [3]; above 16 mg/L in assay [4]; 2 mg/L (≈ 4.25 µM) in assay [5]; 0.5 mg/L (≈ 1.06 µM) in assay [6].
